From doi:10.1101/2019.12.19.881847v1 (biorxiv, 2019)
Read-outs that look alike come from different tables or passages of the source.

What was measured:
[1] = biological target: T1, VqmA (Vibrio cholerae, UniProt A0A0F0AZW0); assay: biochemical
Target sequence in this assay (A0A0F0AZW0 1-246 limits assumed): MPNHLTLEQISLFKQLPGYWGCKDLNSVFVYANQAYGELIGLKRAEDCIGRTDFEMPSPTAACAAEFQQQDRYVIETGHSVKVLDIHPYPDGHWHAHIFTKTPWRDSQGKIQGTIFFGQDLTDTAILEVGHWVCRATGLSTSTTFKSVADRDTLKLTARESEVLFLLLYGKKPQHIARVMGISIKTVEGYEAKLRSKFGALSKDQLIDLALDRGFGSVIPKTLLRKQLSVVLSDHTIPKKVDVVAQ

[2] = biological target: T1, VqmA; assay: biochemical; remark: listed apart in the source
Target sequence in this assay (A0A0F0AZW0 1-246): as the sequence (A0A0F0AZW0 1-246 limits assumed) above

Structure (SMILES)	Kd [1] [µM]	Kd [2] [µM]
CC1NC(C)(C)CNC1=O (stereo not drawn) [compound 2, 3,5,5-trimethylpiperazin-2-one]	7 ± 3.1	
Cc1cnc(O)cn1 [compound 5, 5]		6 ± 1
C[C@H]1NC(C)(C)CNC1=O [compound 1, (R)-3,5,5-trimethylpiperazin-2-one]	10.3 ± 3.1	
